pIC50: −log10 of the molar value.

This assay deals with T1, IDO (Homo sapiens, UniProt P14902).
T1 construct: endogenous in cells; host or cells: HeLa cells treated with IFNγ
Nature of the assay: Hela cell-based IDO inhibitory activity test (IFNγ added). As to conditions: Hela cells with IFNγ, 48 hours incubation, OD 480 nm. The procedure: 2. Hela Cell-Based IDO Inhibitory Activity Test Method
The first step: cell plating. Prepare complete medium and mix well. Cell lines that are in good growth state are selected. Remove the cell culture flask from the incubator and check the cell name, media type and cell generation number on the bottle. The medium was discarded, digested with trypsin, and after digestion, the cells were neutralized with serum-containing medium, and the cells were blown to cause the cells to fall off. Pipette the cell suspension into a centrifuge tube and centrifuge at a speed of 800-1000 for 3-5 minutes. Aspirate the cell supernatant from the centrifuge tube. Add an appropriate volume of medium to the tube and gently blister to resuspend the cells. Count using a Vi-Cell XR cytometer. Adjust the cell suspension to the appropriate concentration. The cell suspension was added to a white-well 96-well plate at 80 μl/well according to the schematic below. The second step: preparation and addition of the compound. Compounds were formulated in DMSO at 600 μM and the compounds were diluted in DMSO according to a multiple of the following table to give 6 concentration gradients of the compound. The 200× compound prepared in DMSO was formulated into a 10× dilution solution in proportion to the corresponding cell culture medium. After 24 hours of cell seeding, 10 μL of 10× corresponding compound dilution and 10 μL of 10×IFNγ were added to each well. Incubate for 48 hours in a 37° C. incubator. The third step: detection and analysis. Cell morphology was observed under an inverted microscope. 80 μL of the supernatant was added to a 3894 plate, 10 μL of 6.1 N trichloroacetic acid was added to each well, shaken for 2 minutes, and placed in a 50-degree incubator for 30 minutes. Centrifuge, 2500 rpm for 10 minutes.
Take 70 μL of the supernatant and transfer to a 3635 UV plate, add 70 μL of the reaction solution, and shake for 2 minutes to make the reaction uniform. Use EnSpire (PE) to detect data with an OD of 480 nm. The cell culture plate 3903 was allowed to stand at room temperature for 30 minutes. 100 μL/well of the cell activity detecting reagent was added to the culture plate. Mix on a shaker for 2 minutes to induce cell lysis. The 96-well plate was allowed to stand at room temperature for 10 minutes to stabilize the luminescence signal. Paste the white base film on the bottom of the plate and tested with Flexstation3 plate (the relevant setting is: Illumination, integration time 500 ms). Record the experimental results obtained from the analysis.
The IC50 value is expressed in the following manner: […]

T1 sequence (P14902 whole entry): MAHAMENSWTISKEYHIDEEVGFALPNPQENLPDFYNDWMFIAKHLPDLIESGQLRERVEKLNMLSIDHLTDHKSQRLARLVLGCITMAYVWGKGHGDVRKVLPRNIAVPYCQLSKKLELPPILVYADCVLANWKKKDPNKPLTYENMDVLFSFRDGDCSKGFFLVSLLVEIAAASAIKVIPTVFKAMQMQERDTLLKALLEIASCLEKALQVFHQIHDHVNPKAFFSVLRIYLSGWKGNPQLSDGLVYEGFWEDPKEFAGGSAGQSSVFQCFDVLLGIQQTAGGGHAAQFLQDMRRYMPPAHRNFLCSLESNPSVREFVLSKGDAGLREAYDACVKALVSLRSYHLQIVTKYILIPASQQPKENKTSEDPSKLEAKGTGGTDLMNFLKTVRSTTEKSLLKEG

As for `CC(C(=O)Nc1nncs1)[C@H]1C[C@H]2C[C@@H](c3ccnc4ccc(F)cc34)C[C@H]2C1` (stereo partly drawn) [Compound 31], the pIC50 (in general, the negative decadic logarithm of the IC50, by convention in mol/L) is less than 7.00.

Turning to `CC(C(=O)Nc1ccc(-c2cnn(C3CC3)c2)nc1)[C@H]1C[C@H]2C[C@@H](c3ccnc4ccc(F)cc34)C[C@H]2C1` (stereo partly drawn) [Compound 32], the negative logarithm of the IC50 (pIC50) was less than 7.00.

With `CC(C(=O)Nc1ccc(F)c(Br)c1)[C@H]1C[C@H]2C[C@@H](c3ccnc4ccc(F)cc34)C[C@H]2C1` (stereo partly drawn) [Compound 33], the pIC50 was 7.00 to 7.60.

In turn, `CC(C(=O)Nc1cncc(Cl)c1)[C@H]1C[C@H]2C[C@@H](c3ccnc4ccc(F)cc34)C[C@H]2C1` (stereo partly drawn) [Compound 35] had a pIC50 of 7.60 to 8.30.

`CC(C(=O)Nc1ccc(C#N)cc1)[C@H]1C[C@H]2C[C@@H](c3ccnc4ccc(F)cc34)C[C@H]2C1` (stereo partly drawn) [Compound 36] showed a negative-log IC50 (pIC50) of no less than 8.30.

For `C#Cc1ccc(NC(=O)C(C)[C@H]2C[C@H]3C[C@@H](c4ccnc5ccc(F)cc45)C[C@H]3C2)cn1` (stereo partly drawn) [Compound 37], the pIC50 is no less than 8.30.

Turning to `CC(C(=O)Nc1ccc(Cl)nc1)C1=C[C@H]2C[C@@H](c3ccnc4ccc(F)cc34)C[C@H]2C1` (stereo partly drawn) [Compound 39], the negative-log IC50 (pIC50) was no less than 8.30.

As for `CC(C(=O)Nc1ccc(Cl)cc1)[C@H]1C[C@]2(C)C[C@H](c3ccnc4ccc(F)cc34)C[C@]2(C)C1` (stereo partly drawn) [Compound 41], the pIC50 is 7.60 to 8.30.

With `CC(C(=O)Nc1ccc(Cl)nc1)[C@H]1C[C@]2(C)C[C@H](c3ccnc4ccc(F)cc34)C[C@]2(C)C1` (stereo partly drawn) [Compound 43], the negative logarithm of the IC50 (pIC50) is 7.00 to 7.60.

`CC(C(=O)Nc1ccc(Cl)cc1)N1C[C@H]2C[C@@H](c3ccnc4ccc(F)cc34)C[C@H]2C1` (stereo partly drawn) [Compound 44] showed a negative logarithm of the IC50 (pIC50) of no less than 8.30.

`O=C(CN1C[C@H]2C[C@@H](c3ccnc4ccc(F)cc34)C[C@H]2C1)Nc1ccc(Cl)cc1` [Compound 46] gave a negative-log IC50 (pIC50) of 7.00 to 7.60.

Consider `O=C(Nc1ccc(Cl)cc1)C(=O)N1C[C@H]2C[C@@H](c3ccnc4ccc(F)cc34)C[C@H]2C1` [Compound 47], for which the pIC50 is 7.00 to 7.60.

`O=C(Nc1ccc(Cl)cc1)N1C[C@H]2C[C@@H](c3ccnc4ccc(F)cc34)C[C@H]2C1` [Compound 48] had a pIC50 of less than 7.00.

Take `O=C(C[C@@H]1C[C@@H]2C[C@@]3(c4ccnc5ccc(F)cc45)O[C@H]3[C@@H]2C1)Nc1ccc(Cl)cc1` [Compound 49]: the negative logarithm of the IC50 (pIC50) was 7.60 to 8.30.

With `O=C(C[C@@H]1C[C@@H]2C[C@@H](N3CCCc4ccccc43)C[C@@H]2C1)Nc1ccc(Cl)cc1` [Compound 52], the pIC50 is less than 7.00.

Take `O=C(C[C@@H]1C[C@@H]2CC(c3ccncc3F)=C[C@@H]2C1)Nc1ccc(Cl)cc1` [Compound 53]: the pIC50 was less than 7.00.

For the molecule `O=C(C[C@H]1C[C@@H]2CC(c3ccncc3F)=C[C@@H]2C1)Nc1ccc(Cl)cc1` [Compound 54], the pIC50 is less than 7.00.

On to `Cn1nc(C2=C[C@@H]3C[C@H](CC(=O)Nc4ccc(Cl)cc4)C[C@@H]3C2)c2ccccc21` [Compound 55], for which the negative-log IC50 (pIC50) is less than 7.00.

`O=C(Nc1ccc(Cl)cc1)C1CC12CCC(c1ccnc3ccc(F)cc13)CC2` (stereo not drawn) [Compound 56] gave a negative logarithm of the IC50 (pIC50) of 7.60 to 8.30.

Turning to `O=C(C[C@]1(O)C[C@H]2C[C@@H](c3ccnc4ccc(F)cc34)C[C@H]2C1)Nc1ccc(Cl)cc1` [Compound 58], the negative-log IC50 (pIC50) is 7.60 to 8.30.

`O=C(C[C@@]1(F)C[C@H]2C[C@@H](c3ccnc4ccc(F)cc34)C[C@H]2C1)Nc1ccc(Cl)cc1` [Compound 59] gave a negative-log IC50 (pIC50) of 7.60 to 8.30.

Molecule `CC(C)(C(=O)Nc1ccc(Cl)cc1)[C@H]1C[C@H]2C[C@@H](c3ccnc4ccc(F)cc34)C[C@H]2C1` [Compound 60] had a pIC50 of no less than 8.30.

Molecule `O=C(C[C@@H]1C[C@@H]2CC(c3ccnc4ccc(F)cc34)=C[C@@H]2C1)Nc1ccc(Cl)cn1` [Compound 61] had a negative-log IC50 (pIC50) of 7.60 to 8.30.

In turn, `C#Cc1ccc(NC(=O)C[C@@H]2C[C@@H]3CC(c4ccnc5ccc(F)cc45)=C[C@@H]3C2)nc1` [Compound 63] had a pIC50 of no less than 8.30.

Take `C#Cc1ccc(NC(=O)C[C@@H]2C[C@@H]3CC(c4ccnc5ccc(F)cc45)=C[C@@H]3C2)cn1` [Compound 64]: the negative logarithm of the IC50 (pIC50) was no less than 8.30.

Molecule `C#Cc1ccc(NC(=O)C[C@H]2C[C@@H]3CC(c4ccnc5ccc(F)cc45)=C[C@@H]3C2)nc1` [Compound 65] showed a pIC50 of 7.60 to 8.30.

`C#Cc1ccc(NC(=O)C[C@@H]2C[C@@H]3C[C@H](c4ccnc5ccc(F)cc45)C[C@@H]3C2)cn1` [Compound 66] gave a pIC50 of no less than 8.30.

Turning to `N#Cc1ccc(NC(=O)C[C@H]2C[C@@H]3C[C@H](c4ccnc5ccc(F)cc45)C[C@@H]3C2)nc1` [Compound 70], the negative logarithm of the IC50 (pIC50) is no less than 8.30.

The molecule `N#Cc1ccc(NC(=O)C[C@H]2C[C@@H]3C[C@H](c4ccnc5ccc(F)cc45)C[C@@H]3C2)cn1` [Compound 71] showed a pIC50 of 7.60 to 8.30.

As to `C#Cc1ccc(NC(=O)[C@H](C)[C@@H]2C[C@H]3CC(c4ccnc5ccc(F)cc45)C[C@H]3C2)nc1` (stereo partly drawn) [Compound 75], the negative-log IC50 (pIC50) was 7.60 to 8.30.

In the case of `CC(C(=O)Nc1ccc(I)cn1)C1C[C@H]2CC(c3ccnc4ccc(F)cc34)C[C@H]2C1` (stereo partly drawn) [Compound 76], the pIC50 is no less than 8.30.

As for `CC(C(=O)Nc1ccc(C#CC(C)(C)O)cn1)[C@H]1C[C@H]2C[C@@H](c3ccnc4ccc(F)cc34)C[C@H]2C1` (stereo partly drawn) [Compound 77], the pIC50 was no less than 8.30.

For the molecule `CC(C(=O)Nc1ccc(C#CC(C)(C)O)cn1)[C@@H]1C[C@H]2C[C@@H](c3ccnc4ccc(F)cc34)C[C@H]2C1` (stereo partly drawn) [Compound 78], the pIC50 was 7.00 to 7.60.

Regarding `CC(C(=O)Nc1ccc(C(F)(F)F)nc1)[C@H]1C[C@H]2C[C@@H](c3ccnc4ccc(F)cc34)C[C@H]2C1` (stereo partly drawn) [Compound 80], the negative logarithm of the IC50 (pIC50) is no less than 8.30.

Molecule `CC(C(=O)Nc1ccc(C(F)(F)F)cn1)[C@H]1C[C@H]2C[C@@H](c3ccnc4ccc(F)cc34)C[C@H]2C1` (stereo partly drawn) [Compound 81] gave a negative-log IC50 (pIC50) of 7.60 to 8.30.

Molecule `CC#Cc1ccc(NC(=O)C(C)[C@H]2C[C@H]3C[C@@H](c4ccnc5ccc(F)cc45)C[C@H]3C2)nc1` (stereo partly drawn) [Compound 82] showed a pIC50 of less than 7.00.

Regarding `CC#Cc1ccc(NC(=O)C(C)[C@H]2C[C@H]3C[C@@H](c4ccnc5ccc(F)cc45)C[C@H]3C2)cn1` (stereo partly drawn) [Compound 83], the negative logarithm of the IC50 (pIC50) was less than 7.00.

The molecule `CC(C)(C(=O)Nc1ccc(C#N)nc1)[C@H]1C[C@H]2C[C@@H](c3ccnc4ccc(F)cc34)C[C@H]2C1` [Compound 89] showed a pIC50 of no less than 8.30.

`CC#Cc1ccc(NC(=O)C(C)(C)[C@H]2C[C@H]3C[C@@H](c4ccnc5ccc(F)cc45)C[C@H]3C2)cn1` [Compound 91] had a pIC50 of no less than 8.30.

`C#Cc1ccc(NC(=O)C2([C@H]3C[C@H]4C[C@@H](c5ccnc6ccc(F)cc56)C[C@H]4C3)CC2)cn1` [Compound 97] showed a pIC50 of 7.60 to 8.30.

`N#Cc1ccc(NC(=O)C2([C@H]3C[C@H]4C[C@@H](c5ccnc6ccc(F)cc56)C[C@H]4C3)CC2)nc1` [Compound 98] showed a negative-log IC50 (pIC50) of no less than 8.30.

For the molecule `CC(C(=O)Nc1ccc(Cl)cn1)N1C[C@H]2C[C@@H](c3ccnc4ccc(F)cc34)C[C@H]2C1` (stereo partly drawn) [Compound 99], the negative-log IC50 (pIC50) is 7.60 to 8.30.

The molecule `CC(C)(C(=O)Nc1ccc(Cl)cn1)N1C[C@H]2C[C@@H](c3ccnc4ccc(F)cc34)C[C@H]2C1` [Compound 100] showed a pIC50 of less than 7.00.

`N#Cc1ccc(NC(=O)C[C@@H]2C[C@@H]3C[C@H](c4ccnc5ccc(F)cc45)C[C@@H]3C2)cn1` [Compound 102]: the pIC50 was no less than 8.30.

In turn, `CC(C)(O)C#Cc1ccc(NC(=O)C[C@@H]2C[C@H]3CC(c4ccnc5ccc(F)cc45)C[C@H]3C2)nc1` (stereo partly drawn) [Compound 103] had a negative-log IC50 (pIC50) of less than 7.00.

The molecule `O=C(Nc1ccc(Cl)cn1)C(F)(F)[C@H]1C[C@H]2C[C@@H](c3ccnc4ccc(F)cc34)C[C@H]2C1` [Compound 104] showed a negative logarithm of the IC50 (pIC50) of 7.00 to 7.60.

`O=C(Nc1ccc(Cl)cn1)/C(F)=C1/C[C@@H]2C[C@H](c3ccnc4ccc(F)cc34)C[C@@H]2C1` [Compound 105] showed a negative-log IC50 (pIC50) of less than 7.00.

`O=C(Nc1ccc(Cl)cc1)O[C@@H]1C[C@@H]2C[C@H](c3ccnc4ccc(F)cc34)C[C@@H]2C1` [Compound 106] gave a pIC50 of less than 7.00.
